The results in this text go back to US20060128715A1, “Oxime derivative hydroxyethylamine aspartyl-protease inhibitors” (priority 2004, published 2006).

Structures are written as SMILES. Several values for one entry are separate records, joined by “and”; a condition that tells them apart may be missing. Equal values may be shown once.

One assay has as its system cathepsin D (catD) versus beta-secretase (BACE). The assay is described as follows: Selectivity for BACE versus catD (ratio of IC50 values). It is filed as biochemical. The conditions noted are these: each value is an average of four experimental runs; multiple values = more than one experiment. How it is done: (§1) Selectivity was calculated as a ratio of inhibition (IC50) values in which the inhibition of beta-secretase was compared to the inhibition of other aspartyl proteases.
In the following examples, each value is an average of four experimental runs and multiple values for one compound indicate that more than one experiment was conducted.
As to `CC(C)(C)c1cccc(C2(NCC(O)C(Cc3cc(F)cc(F)c3)NC(=O)CF)CCc3n[nH]cc3C2)c1` (single isomer, unassigned) [Example 50-27], the “Selectivity IC50(catD)/IC50(BACE)” value is 7.8.
As for `CC(=O)NC(Cc1cc(F)cc(F)c1)C(O)CNC1(c2cc(CC(C)(C)C)cs2)CCc2n[nH]cc2C1` (stereo not drawn) [Example 50-24], the “Selectivity IC50(catD)/IC50(BACE)” value was 5.9 and 7.0.
Same read-out and setting: to `CON=C1CCC(NCC(O)C(Cc2cc(F)cc(F)c2)NC(C)=O)(c2cccc(C(C)(C)C)c2)CC1` (stereo not drawn) [Example 50-2] belongs 15.9 and 18.3.
As to `CC(=O)NC(Cc1cc(F)cc(F)c1)C(O)CNC1(c2cccc(-c3ccsc3)c2)CCc2nn(C)cc2C1` (stereo not drawn) [Example 50-17], the “Selectivity IC50(catD)/IC50(BACE)” value is 1.1.
With `CC(=O)NC(Cc1cc(F)cc(F)c1)C(O)CNC1(c2cccc(-c3ccoc3)c2)CCc2nn(C)cc2C1` (stereo not drawn) [Example 50-19], the “Selectivity IC50(catD)/IC50(BACE)” value was 1.8.
Same read-out and setting: the value for `CC(=O)NC(Cc1cc(F)cc(F)c1)C(O)CNC1(c2cccc(C(C)(C)C)c2)CCc2nn(C)cc2C1` (stereo not drawn) [Example 50-28] was 2.8; that for `CC(=O)NC(Cc1cc(F)cc(F)c1)C(O)CNC1(c2cccs2)CCc2n[nH]cc2C1` (stereo not drawn) [Example 50-23] was 4.5.
Regarding `CC(C)(C)c1cccc(C2(NCC(O)C(Cc3cc(F)cc(F)c3)NC(=O)CF)CCc3n[nH]cc3C2)c1` (single isomer, unassigned) [Example 50-26], the “Selectivity IC50(catD)/IC50(BACE)” value is listed as 17.8.
Same read-out and setting: the value for `CC(=O)NC(Cc1cc(F)cc(F)c1)C(O)CNC1(c2cccc(C(C)(C)C)c2)CCC(=NOCCO)CC1` (stereo not drawn) [Example 50-4] was 2.3 and 2.5.
Turning to `CC(C)(C)c1cccc(C2(NCC(O)C(Cc3cc(F)cc(F)c3)NS(C)(=O)=O)CCc3n[nH]cc3C2)c1` (single isomer, unassigned) [Example 50-16], the “Selectivity IC50(catD)/IC50(BACE)” value came out at 2.7.
Take `CC(=O)NC(Cc1cc(F)cc(F)c1)C(O)CNC1(c2cccc(C(C)(C)C)c2)CCC(=CC#N)CC1` (stereo not drawn) [Example 50-14]: the “Selectivity IC50(catD)/IC50(BACE)” value is on record as 1.9.
For the molecule `Cn1cc2c(n1)CCC(NCC(O)C(Cc1cc(F)cc(F)c1)NS(C)(=O)=O)(c1cccc(C(C)(C)C)c1)C2` (single isomer, unassigned) [Example 50-18], the “Selectivity IC50(catD)/IC50(BACE)” value is 11.0.
`CC(=O)NC(Cc1ccccc1)C(O)CNC1(c2cccc(C(C)(C)C)c2)CCc2n[nH]cc2C1` (stereo not drawn) [Example 50-20]: the “Selectivity IC50(catD)/IC50(BACE)” value is on record as 19.1.
With `CCON=C1CCC(NCC(O)C(Cc2cc(F)cc(F)c2)NC(C)=O)(c2cccc(C(C)(C)C)c2)CC1` (stereo not drawn) [Example 50-3], the “Selectivity IC50(catD)/IC50(BACE)” value came out at 1.8.
On the same count and under the same terms, the value for `CC(C)(C)c1cccc(C2(NCC(O)C(Cc3cc(F)cc(F)c3)NC(=O)CF)CCc3n[nH]cc3C2)c1` (stereo not drawn) [Example 50-25] was 8.5; that for `CC(=O)NC(Cc1cc(F)cc(F)c1)C(O)CNC1(c2cccc(C(C)(C)C)c2)CCc2nn(C(C)=O)cc2C1` (stereo not drawn) [Example 50-12] was 11.1; that for `Cn1cc2c(n1)CCC(NCC(O)C(Cc1cc(F)cc(F)c1)NC(=O)CF)(c1cccc(C(C)(C)C)c1)C2` (stereo not drawn) [Example 50-22] was 2.0.
Same read-out and setting: to `CC(C)(C)c1cccc(C2(NCC(O)C(Cc3cc(F)cc(F)c3)NS(C)(=O)=O)CCc3n[nH]cc3C2)c1` (single isomer, unassigned) [Example 50-15] belongs 25.4.
For the molecule `CC(=O)NC(CC(C)C)C(O)CNC1(c2cccc(C(C)(C)C)c2)CCc2n[nH]cc2C1` (stereo not drawn) [Example 50-29], the “Selectivity IC50(catD)/IC50(BACE)” value worked out at 16.3.

The test system of the next assay is cathepsin E (catE) versus beta-secretase (BACE). The assay is described as follows: Selectivity for BACE versus catE (ratio of IC50 values). It is filed as biochemical. The conditions noted are these: multiple values = more than one experiment. How it is done:
as §1
Selectivity is reported as the ratio of IC50(catE):IC50(BACE).
In the case of `CC(=O)NC(Cc1cc(F)cc(F)c1)C(O)CNC1(c2cccc(C(C)(C)C)c2)CCc2nn(C(C)=O)cc2C1` (stereo not drawn) [Example 51-12], the “Selectivity IC50(catE)/IC50(BACE)” value worked out at 8.4.
On the same count and under the same terms, the value for `CC(=O)NC(Cc1cc(F)cc(F)c1)C(O)CNC1(c2cccc(C(C)(C)C)c2)CCC(=CC#N)CC1` (stereo not drawn) [Example 51-17] was 3.9; that for `CC(=O)NC(Cc1cc(F)cc(F)c1)C(O)CNC1(c2cccc(-c3ccsc3)c2)CCc2nn(C)cc2C1` (stereo not drawn) [Example 51-20] was 1.1; that for `CC(C)(C)c1cccc(C2(NCC(O)C(Cc3cc(F)cc(F)c3)NS(C)(=O)=O)CCc3n[nH]cc3C2)c1` (single isomer, unassigned) [Example 51-19] was 5.8.
Consider `C=C1CCC(NCC(O)C(Cc2cc(F)cc(F)c2)NC(C)=O)(c2cccc(C(C)(C)C)c2)CC1` (stereo not drawn) [Example 51-14], for which the “Selectivity IC50(catE)/IC50(BACE)” value came to 1.9.
As for `CC(=O)NC(Cc1cc(F)cc(F)c1)C(O)CNC1(c2cccc(-n3cccn3)c2)CCc2nn(C)cc2C1` (stereo not drawn) [Example 51-22], the “Selectivity IC50(catE)/IC50(BACE)” value is listed as 1.8.
As to `CON=C1CCC(NCC(O)C(Cc2cc(F)cc(F)c2)NC(C)=O)(c2cccc(C(C)(C)C)c2)CC1` (stereo not drawn) [Example 51-2], the “Selectivity IC50(catE)/IC50(BACE)” value was 9.3 and 10.4.
For `Cn1cc2c(n1)CCC(NCC(O)C(Cc1cc(F)cc(F)c1)NS(C)(=O)=O)(c1cccc(C(C)(C)C)c1)C2` (stereo not drawn) [Example 51-21], the “Selectivity IC50(catE)/IC50(BACE)” value is 4.8.
For `CCON=C1CCC(NCC(O)C(Cc2cc(F)cc(F)c2)NC(C)=O)(c2cccc(C(C)(C)C)c2)CC1` (stereo not drawn) [Example 51-3], the “Selectivity IC50(catE)/IC50(BACE)” value was 3.3.
As to `CC(=O)NC(Cc1cc(F)cc(F)c1)C(O)CNC1(c2cccc(C(C)(C)C)c2)CCc2nn(C)cc2C1` (stereo not drawn) [Example 51-23], the “Selectivity IC50(catE)/IC50(BACE)” value was found to be 1.8.
Regarding `CC(C)(C)c1cccc(C2(NCC(O)C(Cc3cc(F)cc(F)c3)NS(C)(=O)=O)CCc3n[nH]cc3C2)c1` (single isomer, unassigned) [Example 51-18], the “Selectivity IC50(catE)/IC50(BACE)” value is 23.2.
